Values of other authors, collected in patent publication US9199026B2, “Modular extracorporeal systems and methods for treating blood-borne diseases” (SOMERSET GROUP ENTERPRISES, INC., priority 2011, dated 2015).
Values belong to the compound of their own block, whether it stands above or below them.

Legend:
[1] = system: Listeria; details: carbonation volume about 2, about 35° C., pressure up to about 350 MPa, about 300 seconds
[2] = system: pathogen; details: pH 6.0 compared to pH 7.4
[3] = at acidic pH
[4] = system: S. aureus; details: basic vs slightly acidic pH
[5] = system: MRSA; details: raised oxygen levels

SMILES: O=C=O [CO2, Carbon dioxide]
effect on inactivation of Listeria [1]: enhanced the inactivation of Listeria

SMILES: N#Cc1c(N2C[C@@H]3NCCO[C@H]3C2)c(F)cc2c(=O)c(C(=O)O)cn(C3CC3)c12 [Finafloxacin, finafloxacin]
increase in activity (lowering of the MIC) [2]: 4- to 8 fold

fraction under a neutral form [3]: 50%
SMILES: Nc1nc(-n2cc(C(=O)O)c(=O)c3cc(F)c(N4CC(O)C4)c(Cl)c32)c(F)cc1F [delafloxacin]

SMILES: CN[C@H](CC(C)C)C(=O)N[C@H]1C(=O)N[C@@H](CC(N)=O)C(=O)N[C@H]2C(=O)N[C@H]3C(=O)N[C@H](C(=O)N[C@H](C(=O)O)c4cc(O)cc(O)c4-c4cc3ccc4O)[C@H](O)c3ccc(c(Cl)c3)Oc3cc2cc(c3O[C@@H]2O[C@H](CO)[C@@H](O)[C@H](O)[C@H]2O[C@H]2C[C@](C)(N)[C@H](O)[C@H](C)O2)Oc2ccc(cc2Cl)[C@H]1O [vancomycin]
killing S. aureus, basic versus slightly acidic conditions [4]: killing S. aureus under basic conditions better than under slightly acidic conditions
effect of raising oxygen levels on resistance of MRSA [5]: decreases the resistance of MRSA to vancomycin
